{"source": "patent US20100249193A1", "about": "“Nematicidal, Insecticidal and Acaricidal Active Ingredient Combinations Comprising Pyridyl-ethylbenzamides and Insecticides” (Bayer CropScience AG, priority 2009, published 2010)", "tested_on": "Meloidogyne incognita", "test": "Meloidogyne incognita test (MELGIN), gall formation on salad seedlings in sand", "format": "in vivo", "settings": "0% = galls equal to untreated control", "procedure": "Meloidogyne incognita—Test (MELGIN)\nTo produce a suitable preparation of active compound, 1 part by weight of active compound is mixed with the stated amount of solvent, and the concentrate is diluted with emulsifier-containing water to the desired concentration.\nVessels are filled with sand, a solution of the active ingredient, a suspension containing eggs and larvae of Meloidogyne incognita and salad seeds. The salad seeds germinate and the seedlings grow. Galls develop on the roots.\nAfter the specified period the nematicidal activity is determined on the basis of the percentage of gall formation. 100% means that no galls were found; 0% means that the number of galls found on the roots of the treated plants was equal to that in untreated control plants."}
{"molecule": "CNC(=O)c1cc(C#N)cc(C)c1NC(=O)c1cc(Br)nn1-c1ncccc1Cl", "note": "[Cyazypyr, cyazypyr]", "values": [{"measurement": "Gall-formation efficacy in % after 21 d (100% = no galls)", "setting": "4 ppm", "result": 6, "unit": "%"}]}
{"molecule": "O=C(NCCc1ncc(C(F)(F)F)cc1Cl)c1ccccc1C(F)(F)F", "note": "[Fluopyram, N-{2-[3-chloro-5-(trifluoromethyl)-2-pyridinyl]ethyl}-2-trifluoromethylbenzamide]", "values": [{"measurement": "Gall-formation efficacy in % after 21 d (100% = no galls)", "setting": "0.125 ppm", "result": 56, "unit": "%"}]}
